Test results reported in ChEMBL document CHEMBL2429713, “Toward drugs for protease-activated receptor 2 (PAR2)” (J Med Chem, 2013).
pEC50, pIC50, pKi: −log10 of the molar value. *1 amine or outer side, *2 acyl side, *3 side chain or, on linkers, in order; H or OH if unused. Where a SMILES comes first, the peptide text is derived from it. [ ]: non-standard residue; d: D form. The star is where a group is joined. X1 = CCCCCCCCCCCCCCCC(=O)OCCOCCOCCNCCC[C@H](N[*:1])C(=O)[*:2]; Phe(4-NO2) = N[C@@H](Cc1ccc([N+](=O)[O-])cc1)C(=O)O; 4Thiazolecarbonyl(2-NH2) = Nc1nc(C(=O)*)cs1; Palmitoyl = CCCCCCCCCCCCCCCC(=O)*; Orn = NCCC[C@H](N)C(=O)O; 2Furoyl = O=C(c1ccco1)*

Legend:
[1] = target: T1, Proteinase-activated receptor 2 (Homo sapiens, UniProt P55085); test: Antagonist activity at PAR2 in human HT-29 cells assessed as inhibition of agonist-induced calcium mobilization; format: functional, cell-based
T1 sequence (P55085 whole entry): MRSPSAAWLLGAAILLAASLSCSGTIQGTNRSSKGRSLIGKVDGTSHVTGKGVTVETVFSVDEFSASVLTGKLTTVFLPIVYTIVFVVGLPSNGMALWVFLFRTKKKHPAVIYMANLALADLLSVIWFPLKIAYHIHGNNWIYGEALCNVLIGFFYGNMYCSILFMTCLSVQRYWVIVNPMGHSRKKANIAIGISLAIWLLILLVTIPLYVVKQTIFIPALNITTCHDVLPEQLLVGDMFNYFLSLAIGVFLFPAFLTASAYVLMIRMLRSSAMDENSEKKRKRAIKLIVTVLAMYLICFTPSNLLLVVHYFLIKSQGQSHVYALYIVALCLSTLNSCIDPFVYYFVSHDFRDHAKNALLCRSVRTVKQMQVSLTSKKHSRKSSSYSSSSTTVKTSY

[2] = target: T1, Proteinase-activated receptor 2; test: Antagonist activity at PAR2 in human HCT15 cells assessed as inhibition of SLIGKV-NH2-induced intracellular calcium release; format: functional, cell-based, HCT-15
[3] = target: T1, Proteinase-activated receptor 2; test: Antagonist activity at PAR2 in human HT-29 cells assessed as inhibition of trypsin-induced intracellular calcium release; format: functional, cell-based
[4] = target: T1, Proteinase-activated receptor 2; test: Antagonist activity at PAR2 in human HT-29 cells assessed as inhibition of 2f-LIGRLO-NH2-induced intracellular calcium release; format: functional, cell-based
[5] = target: T1, Proteinase-activated receptor 2; test: Displacement of [3H]2-furoyl-LIGRL-NH2 from human PAR2 expressed in human NCTC-2544 cells by scintillation counting analysis; format: cell-based
[6] = target: T1, Proteinase-activated receptor 2; test: Antagonist activity at human PAR2 expressed in human NCTC-2544 cells assessed as inhibition of SLIGKV-NH2-induced NFkappaB activation preincubated for 15 to 30 mins followed by SLIGKV-NH2 addition measured after 6 hrs by luciferase reporter gene assay; format: cell-based
[7] = target: T1, Proteinase-activated receptor 2; test: Agonist activity at human PAR2 expressed in HEK293T cells assessed as stimulation of phosphatidylinositol hydrolysis after 45 mins by scintillation counting analysis; format: functional, cell-based, HEK-293T
[8] = target: T1, Proteinase-activated receptor 2; test: Agonist activity at human PAR2 expressed in HEK293T cells assessed as increase in intracellular calcium level by bioluminescence assay; format: functional, cell-based, HEK-293T
[9] = target: T1, Proteinase-activated receptor 2; test: Agonist activity at PAR2 in human HT-29 cells assessed as increase in intracellular calcium release; format: functional, cell-based
[10] = target: T1, Proteinase-activated receptor 2; test: Displacement of [3H]-2-furoyl-LIGRL-NH2 from human PAR2 expressed in human NCTC-2544 cells after 60 mins by scintillation counting analysis; format: cell-based
[11] = target: T2, Proteinase-activated receptor 2 (Rattus norvegicus, UniProt Q63645); test: Antagonist activity at rat PAR2 expressed in rat KNRK cells assessed as inhibition of trypsin-induced receptor activation; format: cell-based
T2 sequence (Q63645 whole entry): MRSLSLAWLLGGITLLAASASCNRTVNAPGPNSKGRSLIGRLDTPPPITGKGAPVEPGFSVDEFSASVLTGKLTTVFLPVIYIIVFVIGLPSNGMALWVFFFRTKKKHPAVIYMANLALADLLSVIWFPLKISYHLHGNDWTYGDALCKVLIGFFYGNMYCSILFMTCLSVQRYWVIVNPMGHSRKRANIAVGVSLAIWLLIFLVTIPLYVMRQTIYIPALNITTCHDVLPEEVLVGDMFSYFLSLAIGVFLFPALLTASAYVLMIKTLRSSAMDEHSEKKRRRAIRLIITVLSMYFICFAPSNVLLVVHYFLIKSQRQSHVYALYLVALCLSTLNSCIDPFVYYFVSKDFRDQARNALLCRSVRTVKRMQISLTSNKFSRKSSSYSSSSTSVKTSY

[12] = target: T1, Proteinase-activated receptor 2; test: Antagonist activity at PAR2 in human HaCaT cells assessed as inhibition of SLIGKV-NH2-induced intracellular calcium release; format: functional, cell-based
[13] = target: T1, Proteinase-activated receptor 2; test: Agonist activity at PAR2 (unknown origin) by cell-based assay
[14] = target: Proteinase-activated receptor 2 (Homo sapiens) (UniProt P55085); test: Antagonist activity at PAR2 in human SW620 cells assessed as inhibition of SLIGRL-NH2-induced intracellular calcium release at 6 uM relative to control; format: functional, cell-based; set-up: scale not given: the % may be the effect or the level left; conditions: SW-620
[15] = target: T3, Proteinase-activated receptor 1 (Homo sapiens, UniProt P25116); test: Agonist activity at human PAR1 expressed in African green monkey COS7 cells assessed as stimulation of inositol triphosphate production; format: functional, cell-based, COS-7
T3 sequence (P25116 whole entry): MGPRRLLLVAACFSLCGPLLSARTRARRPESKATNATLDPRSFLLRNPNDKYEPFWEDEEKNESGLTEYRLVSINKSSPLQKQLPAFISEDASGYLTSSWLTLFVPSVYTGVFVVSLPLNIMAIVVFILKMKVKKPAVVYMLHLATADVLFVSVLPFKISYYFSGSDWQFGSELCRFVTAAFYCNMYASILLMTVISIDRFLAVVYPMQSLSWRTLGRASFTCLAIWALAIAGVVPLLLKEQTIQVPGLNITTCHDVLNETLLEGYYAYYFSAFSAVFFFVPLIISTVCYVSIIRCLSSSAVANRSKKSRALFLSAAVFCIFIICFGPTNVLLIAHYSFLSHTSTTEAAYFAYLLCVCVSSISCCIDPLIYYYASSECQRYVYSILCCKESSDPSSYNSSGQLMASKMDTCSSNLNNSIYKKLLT

[16] = target: T1, Proteinase-activated receptor 2; test: Agonist activity at PAR2 in human 16HBE14o- cells assessed as increase in MAPK level; format: cell-based
[17] = target: T1, Proteinase-activated receptor 2; test: Agonist activity at PAR2 in human 16HBE14o- cells assessed as increase in intracellular calcium level; format: functional, cell-based
[18] = target: T1, Proteinase-activated receptor 2; test: Antagonist activity at human PAR2 expressed in human A549 cells assessed as inhibition of 2f-LIGRLO-NH2-induced NFkappaB activation by luciferase reporter gene assay; format: cell-based
[19] = target: T1, Proteinase-activated receptor 2; test: Antagonist activity at human PAR2 expressed in human A549 cells coexpressing TACR1 assessed as inhibition of substance P-induced IL-8 production by ELISA; format: cell-based

`CC[C@H](C)[C@H](NC(=O)[C@H](CC1CCCCC1)NC(=O)c1ccno1)C(=O)N1CCC2(CCc3ccccc32)CC1` gave a pIC50 [1] of 5.70.
Compound `CC[C@H](C)[C@H](NC(=O)[C@H](CC1CCCCC1)NC(=O)c1ccno1)C(=O)N1CCC2(C=Cc3ccccc32)CC1` has a pIC50 [1] of 6.00.
In the case of `COc1ccc(Br)c(C(=O)Nn2c(-c3ccc(F)cc3)nc3ccccc3c2=O)c1`, the pIC50 [2] was 4.47.
With `Cc1cccc(Cn2c(C)nc3cc(C(=O)N4CCCCC4)ccc32)c1` the pIC50 [2] was 3.61.
In the case of `CC[C@H](C)[C@H](NC(=O)[C@H](CC1CCCCC1)NC(=O)c1ccno1)C(=O)NCc1ccccc1OC`, the pIC50 [3] was 5.72 and the pIC50 [4] was 6.40.
`NCCCC[C@H](NC(=O)CNC(=O)Nc1ccc2c(c1)c(CN1CCCC1)cn2Cc1c(Cl)cccc1Cl)C(=O)N[C@@H](Cc1ccccc1)C(=O)NC(c1ccccc1)c1ccccc1` gave a pKi [5] of 6.22 and a pIC50 [6] of 5.96.
Work on `C/C(=N\NC(=O)[C@@H]1C(=O)NC[C@H]1c1ccccc1)c1cccc(Br)c1` yielded a pEC50 [7] of 7.52 and a pEC50 [8] of 7.52.
`CC[C@H](C)[C@H](NC(=O)[C@H](CC(C)C)NC(=O)c1ccco1)C(=O)NCC(=O)N[C@@H](CCCN=C(N)N)C(=O)N[C@@H](CC(C)C)C(=O)N[C@@H](CCCN)C(N)=O` (2Furoyl-LIGRL[Orn]-NH2) showed a pEC50 [9] of 6.70 and a pIC50 [10] of 7.00.
With `CC[C@H](C)[C@H](NC(=O)[C@H](Cc1ccc([N+](=O)[O-])cc1)NC(=O)[C@H](CCCN=C(N)N)NC(=O)CNC(=O)[C@@H](NC(=O)[C@H](CC(C)C)NC(=O)c1ccco1)[C@@H](C)CC)C(N)=O` (2Furoyl-LIGR[Phe(4-NO2)]I-NH2) the pEC50 [9] was 6.70.
Work on `CC(C)C[C@H](NC(=O)[C@H](CC(C)C)NC(=O)[C@H](CO)NC(=O)[C@@H](N)Cc1ccccc1)C(=O)N[C@@H](CCCNC(=N)N)C(=O)N[C@@H](Cc1ccc(O)cc1)C(N)=O` (H-FSLLRY-NH2) yielded a pIC50 [11] of 4.30.
Work on `CC[C@H](C)[C@H](NC(=O)[C@H](CO)NC(=O)[C@@H](N)CC(C)C)C(=O)NCC(=O)N[C@@H](CCCNC(=N)N)C(=O)N[C@@H](CC(C)C)C(N)=O` (H-LSIGRL-NH2) yielded a pIC50 [11] of 4.30.
Work on `CC(C)C[C@H](NC(=O)[C@H](CC(C)C)NC(=O)[C@H](CO)NC(=O)[C@H](Cc1ccccc1)NC(=O)[C@H](CCCNC(=N)N)NC(=O)[C@@H](N)CCCNC(=N)N)C(=O)N[C@@H](CCCNC(=N)N)C(=O)N[C@@H](Cc1ccc(O)cc1)C(N)=O` (H-RRFSLLRY-NH2) yielded a pIC50 [12] of 3.15.
For `CC[C@H](C)[C@H](NC(=O)[C@H](CC(C)C)NC(=O)[C@@H](N)CO)C(=O)NCC(=O)N[C@@H](CCCNC(=N)N)C(=O)N[C@@H](CC(C)C)C(N)=O` (H-SLIGRL-NH2), the pEC50 [13] was 5.30.
Compound `CCCCCCCCCCCCCCCC(=O)NCC(=O)N[C@@H](CC(=O)O)C(=O)N[C@@H](CCC(=O)O)C(=O)N[C@@H](CC(N)=O)C(=O)N[C@@H](CO)C(=O)N[C@@H](CCC(=O)O)C(=O)N[C@@H](CCCCN)C(=O)N[C@@H](CCCCN)C(=O)N[C@@H](CCCNC(=N)N)C(=O)N[C@@H](CCCCN)C(=O)N[C@@H](CCC(N)=O)C(=O)N[C@@H](C)C(=O)N[C@H](C(=O)N[C@@H](CCCCN)C(=O)O)[C@@H](C)CC` (Palmitoyl-GDENSEKKRKQAIK-OH) has an Activity [14] of 53%.
Compound `CCCCCCCCCCCCCCCC(=O)N[C@@H](CCCN=C(N)N)C(=O)N[C@@H](CS)C(=O)N[C@@H](CC(C)C)C(=O)N[C@@H](CO)C(=O)N[C@@H](CO)C(=O)N[C@@H](CO)C(=O)N[C@@H](C)C(=O)N[C@H](C(=O)N[C@@H](C)C(=O)N[C@@H](CC(N)=O)C(=O)N[C@@H](CCCN=C(N)N)C(=O)N[C@@H](CO)C(=O)N[C@@H](CCCCN)C(=O)N[C@@H](CCCCN)C(=O)N[C@@H](CO)C(=O)N[C@@H](CCCN=C(N)N)C(=O)N[C@@H](CC(C)C)C(=O)N[C@@H](Cc1ccccc1)C(=O)O)C(C)C` (Palmitoyl-RCLSSSAVANRSKKSRLF-OH) has a pEC50 [15] of 6.74.
For `CCCCCCCCCCCCCCCC(=O)OCCOCCOCCNCCC[C@H](NC(=O)[C@H](CC(C)C)NC(=O)[C@H](CCCNC(=N)N)NC(=O)CNC(=O)[C@@H](NC(=O)[C@H](CC(C)C)NC(=O)c1csc(N)n1)[C@@H](C)CC)C(N)=O` ({4Thiazolecarbonyl(2-NH2)}-LIGRL[X1]-NH2), the pEC50 [16] was 8.00 and the pEC50 [17] was 8.40.
For `CC(C)[C@]12O[C@H]1[C@@H]1O[C@]13[C@]1(O[C@H]1C[C@H]1C4=C(CC[C@@]13C)C(=O)OC4)[C@@H]2O` [TRIPTOLIDE], the pIC50 [18] was 7.85 and the pIC50 [19] was 7.64.
